Reference: publication PMC3680490, “Fragment-Based Screening Maps Inhibitor Interactions in the ATP-Binding Site of Checkpoint Kinase 2” (PLoS ONE, 2013)
Marks after values point to notes of the source that are not given here.

Experiments:
[1] = test system: ovarian cancer cell lines; conditions: cited from earlier work
[2] = cited from earlier work
[3] = molecular target: T1, kinase domain of CHK2 (CHK2-KD, residues 210-531) (Homo sapiens, UniProt O96017); test: Thermal shift assay (SYPRO Orange); format: binding; conditions: for T m, ligand (standard deviations from the plate mean): highest value of two independent measurements, 2 mM fragment; for ΔT m, ligand: mean of two independent measurements, 2 mM ligand
T1 construct: The kinase domain of CHK2 (residues 210-531) was produced as a GST-fusion protein; GST (cleaved yes); made in house
T1 sequence (O96017 210-531): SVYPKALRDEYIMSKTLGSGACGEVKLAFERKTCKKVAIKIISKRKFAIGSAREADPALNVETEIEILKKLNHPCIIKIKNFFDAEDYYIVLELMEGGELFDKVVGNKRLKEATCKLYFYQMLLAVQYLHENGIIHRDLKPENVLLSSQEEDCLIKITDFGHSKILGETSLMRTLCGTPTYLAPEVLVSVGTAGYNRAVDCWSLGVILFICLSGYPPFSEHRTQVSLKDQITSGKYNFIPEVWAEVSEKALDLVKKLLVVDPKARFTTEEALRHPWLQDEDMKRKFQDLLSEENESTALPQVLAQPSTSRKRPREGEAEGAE
Description: In parallel, we screened the fragment library against the kinase domain of CHK2 (CHK2-KD, residues 210-531) using a thermal shift assay. In a thermal shift assay, the folding stability of a target protein is measured by its thermally-induced unfolding. An increase in melting temperature of a protein in the presence of a ligand is used to identify ligand binding, assuming that the bound ligand stabilizes the target protein and therefore increases the energy required for its thermal unfolding. The thermal unfolding of CHK2-KD was measured using the fluorescent dye SYPRO® Orange™, which is sensitive to its environment and preferentially binds to hydrophobic patches that are typically exposed upon protein unfolding. To identify the hit threshold, we calculated the standard deviation (SD) of the melting temperature of CHK2 in the presence of a ligand (T m, ligand) for each plate. Ligands with a T m, ligand value of more than 2 standard deviations above the mean T m, ligand for each plate in at least one of the duplicates were defined as hits. We calculated the mean change in melting temperature from duplicate measurements (ΔT m, ligand) by subtracting the mean melting temperature of six reference samples of protein without ligand (T m, 0) from the melting temperature of CHK2 samples with ligand (T m, ligand).
Thermal shift screening of the ICR fragment library against a truncated version of CHK2 comprising only the kinase domain (CHK2-KD), was carried out using an Opticon 2 RT-PCR machine (Bio-Rad, Hemel Hempstead, UK). […] All experiments were performed in white 96-well SuperPlate skirted PCR-plates (ABgene®, Thermo Scientific, Loughborough, UK). Fragments were screened at a final concentration of 2 mM in assay buffer containing a final concentration of 2% (v/v) DMSO and all measurements were carried out in duplicate. The well contents were mixed by centrifugation for 2 min at 500 g and pre-equilibrated for 5 min at 20°C before starting the thermal shift experiment. All melting curves were generated from 20°C to 95°C, raising the temperature in steps of 0.5°C and keeping it constant for 15 seconds at each step. […] MgATP (2 mM ATP and 5 mM MgCl2) in the presence of 2% (v/v) DMSO was used as a positive control. For each experiment, the data range of the protein unfolding transition was established using the Excel-based worksheet ‘DSF Analysis’, made available by the Structural Genomics Consortium (SGC), Oxford, and subsequently fitted with a Boltzmann sigmoidal equation using GraphPad Prism version 5 (GraphPad Software, San Diego, California, USA, www.graphpad.com), from which the melting temperature T m was calculated. The change in melting temperature caused by ligand binding, expressed as the mean from duplicate measurements (ΔT m, ligand), was calculated by subtracting T m, 0 from each melting temperature obtained in the presence of a ligand (T m, ligand) using the DSF-analysis spreadsheet. The hit threshold was determined by calculating the standard deviation (SD) of the melting temperatures of CHK2 in the presence of ligand (T m, ligand) for every plate. Ligands with a T m, ligand>mean(T m, ligand) +2SD in at least one of the duplicates were defined as hits.

full-length CHK2 [4] = molecular target: T2, full-length CHK2 (Homo sapiens, UniProt O96017); test: High-concentration AlphaScreen kinase assay (phosphorylation of CDC25C peptide); format: biochemical; conditions: for inhibition at 300 µM: primary screening data, compound concentration 300 µM, mean ± SD of triplicate, read-out: AlphaScreen™ (percentage inhibition)
T2 construct: full-length human CHK2 (residues 1 to 543); 6xHis (N); made in house; host or cells: Sf9 insect cells (baculovirus)
T2 sequence (O96017 whole entry, the tested form may be a part): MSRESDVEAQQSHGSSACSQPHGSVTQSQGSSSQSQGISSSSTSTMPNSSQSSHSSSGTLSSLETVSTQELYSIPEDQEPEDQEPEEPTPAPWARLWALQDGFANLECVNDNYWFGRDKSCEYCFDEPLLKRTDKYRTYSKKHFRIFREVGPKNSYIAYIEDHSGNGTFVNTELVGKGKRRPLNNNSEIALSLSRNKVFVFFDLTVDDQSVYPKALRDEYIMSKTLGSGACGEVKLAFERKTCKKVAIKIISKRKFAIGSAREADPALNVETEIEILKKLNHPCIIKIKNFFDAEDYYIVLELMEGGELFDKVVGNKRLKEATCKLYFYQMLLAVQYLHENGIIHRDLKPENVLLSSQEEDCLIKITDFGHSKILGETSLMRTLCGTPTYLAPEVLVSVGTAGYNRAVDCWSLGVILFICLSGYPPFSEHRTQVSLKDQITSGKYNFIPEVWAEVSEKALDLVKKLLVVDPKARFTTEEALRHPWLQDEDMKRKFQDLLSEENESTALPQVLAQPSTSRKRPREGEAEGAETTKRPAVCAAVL
Description: To identify fragments binding in the ATP-binding-site of CHK2, we screened the in-house fragment library consisting of 1869 compounds, as described above, against full-length CHK2 using an AlphaScreen™ kinase assay, in which inhibition of full-length CHK2 was measured by a reduction in the phosphorylation of a CDC25C peptide (Figure S1). Because of the generally weak affinity of fragments, the assay was carried out at a high compound concentration (300 µM). […] All 45 hits were confirmed by re-assaying them under the same conditions. To eliminate potential false positives due to aggregation of poorly soluble fragments, or owing to interference with the AlphaScreen™ signal, the hits were assayed by including 0.01% (v/v) Triton™ X-100 in the assay buffer, and in the presence of phosphorylated rather than unphosphorylated peptide substrate, respectively. The average robust Z’ for the confirmation assays was 0.9. […] The final confirmed hit rate for the assay was 1.1%.
Full-length CHK2 was screened against the ICR fragment library consisting of 1869 fragments using a biochemical assay based on AlphaScreen™ technology in which the CHK2 kinase activity was measured by monitoring the phosphorylation of a CDC25C peptide using a phospho-specific antibody. Assay conditions were similar to those described by Hilton et al., but all fragments were screened at a final concentration of 300 µM. Amendments to the protocol included a change in the full-length CHK2 concentration to 2 nM and a final concentration of the antibody against phosphorylated CDC25C of 0.5 nM. For a positive control, 4-(2-amino-5-(thiophen-3-yl)pyridin-3-yl)benzoic acid (27, Figure S4, referred to as compound 19 in Hilton et al.) was added at a final concentration of 10 µM. The phosphorylation reaction was performed for 80 min at room temperature and stopped by the addition of 5 µL of the previously described detection buffer. Plates were incubated overnight at room temperature and in the dark, and the assay endpoint was measured using an Envision™ 2103 multilabel reader (Perkin Elmer Life Sciences, Seer Green, UK). Primary screening data were analyzed in ActivityBase (IDBS, Guildford, UK). Percentage inhibition was calculated as follows: 100*(1–(S–B)/(T–B)), where S represented the counts for each compound well, B the counts in the wells containing no enzyme, and T the counts in the total activity wells. The plates were assayed in triplicate and fragments with a percentage inhibition of 50% or more in at least two out of the three measurements were defined as initial hits. Initial hits were re-assayed under the same conditions in triplicate for reconfirmation. Furthermore, all hits were tested for interference by repeating the assay in the presence of phosphorylated rather than unphosphorylated peptide substrate, and for aggregation by including 0.01% (v/v) Triton™ X-100 in the assay buffer.

full-length CHK2 [5] = molecular target: T2, full-length CHK2; test: Microfluidic mobility shift assay for IC50 determination; format: biochemical; conditions: for Ligand Efficiency: calculated using mean mobility shift IC50; for IC50: mean ± SD of triplicate
Description: In addition, percentage inhibition and IC50 values for all follow-up compounds were determined in triplicate using this assay. […] An ECHO® 550 acoustic dispenser (Labcyte Inc™, Dublin, Ireland) was used to generate duplicate eight-point dilution curves directly into 384-well low-volume polystyrene assay plates (Corning Life Sciences, New York, USA). For each compound, a 10 mM stock concentration in 100% DMSO was used.
The plate was sealed and centrifuged for 1 min at 1000 rpm before incubation for 1 h at room temperature.
IC50 values were calculated from a four-parameter logistics fit of percentage inhibition versus concentration using the Studies package (from Dotmatics, Bishops Stortford, UK).

CHK1 = molecular target: T3, CHK1 (Homo sapiens, UniProt O14757); test: CHK1 mobility shift assay; format: biochemical; conditions: inactive
T3 sequence (O14757 1-476): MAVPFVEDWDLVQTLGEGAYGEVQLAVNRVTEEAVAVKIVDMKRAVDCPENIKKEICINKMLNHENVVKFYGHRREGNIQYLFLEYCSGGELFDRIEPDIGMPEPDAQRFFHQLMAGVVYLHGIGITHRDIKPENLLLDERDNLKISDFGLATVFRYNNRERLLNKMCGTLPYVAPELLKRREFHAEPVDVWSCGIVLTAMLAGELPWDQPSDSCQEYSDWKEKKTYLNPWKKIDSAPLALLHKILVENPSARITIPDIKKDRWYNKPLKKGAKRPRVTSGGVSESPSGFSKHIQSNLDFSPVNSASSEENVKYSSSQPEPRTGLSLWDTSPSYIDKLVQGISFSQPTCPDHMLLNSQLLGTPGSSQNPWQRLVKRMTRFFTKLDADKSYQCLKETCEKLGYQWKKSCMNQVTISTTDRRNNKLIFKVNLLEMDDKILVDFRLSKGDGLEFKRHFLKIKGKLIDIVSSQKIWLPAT
From the text: However, it is very difficult to assess the contribution to selectivity of binding in this pocket using the inhibitor 26, because its CHK2 selectivity is most likely dominated by the unusual binding of the benzamidazole scaffold to the hinge through a mediating water molecule.

cancer cell lines = test system: cancer cell lines; design: method as in PMID 19741151; conditions: cited from earlier work
[6] = follow-up compounds from similarity search (Table 2)

SMILES	T m, ligand (standard deviations from the plate mean) [3] [standard deviations]	ΔT m, ligand [3]	inhibition at 300 µM (full-length CHK2 [4]) [%]	Ligand Efficiency (full-length CHK2 [5]; Table 1) [kcal mol^−1 HA^−1]	IC50 (full-length CHK2 [5]; fragment hits, 100 µM ATP) [µM]	also measured
COc1cc2nc(-c3cc(F)ccc3O)nc(N[C@@H]3CNC[C@H]3C(C)(C)O)c2cc1OC [CCT241533]	–	–	–	–	–	Potentiation in combination with genotoxic agents [1]: no such effects have been observed; Potentiation of the cytotoxicity of PARP inhibitors such as AG14447 and olaparib [2]: potentiates the cytotoxicity
c1ccc2c(c1)[nH]c1ncnn12 [Compound 11]	5.8	7.0±0.8 °C	91.4 ± 0.4	0.64	2.7 ± 0.2	–
C/C(=N/O)c1ccc(O)cc1O [Compound 12]	2.9	3.0 ^f °C	58.2 ± 1.7	0.47	85.6 ± 7.9	–
O=C(NCc1ccco1)c1ccc2nccnc2c1 [Compound 13]	5.7	5.6±0.3 °C	76.1 ± 1.1	0.36	11.7 ± 2	IC50 (CHK1): > 200 µM
CC(C)(C)NC(=O)Nc1ccc2nccnc2c1 [Compound 14]	4.3	4.5±0.02 °C	59.5 ± 1.9	0.34	36.9 ± 9	–
Cc1ccc2ncnc(N)c2c1 [Compound 15]	4.6	5.0±0.6 °C	72.8 ± 6.7	0.55	15.9 ± 1.1	–
Cc1cc(-c2ccccc2)n[nH]1 [Compound 16]	3.7	2.6±1.7 °C	56.1 ± 1	–	–	–
Nc1cc(-c2cccnc2)n[nH]1 [Compound 17]	4.2	3.7±0.9 °C	71.5 ± 25.5	0.47	76.2 ± 3.3	–
Cc1n[nH]c(N)c1-c1cccs1 [Compound 18]	4.6	3.9±1.3 °C	60.9 ± 2.1	0.47	76.8 ± 1.4	–
CC(=O)N1CCC(C(=O)Nc2ccc(C)cn2)CC1 [Compound 19]	5.7	4.0±0.6 °C	34.7 ± 0.93	0.26	228 ± 22.2	–
c1coc(-c2ccnc3[nH]nc(C4CC4)c23)c1 [Compound 20]	–	–	–	–	–	Ligand Efficiency (full-length CHK2 [5]; Table 2): 0.42 kcal mol^−1 HA^−1; IC50 (full-length CHK2 [5]; [6]): 7.2 ± 2.9 µM
c1cncc(-c2n[nH]c3ccnc(-c4cccs4)c23)c1 [Compound 21]	–	–	–	–	–	Ligand Efficiency (full-length CHK2 [5]; Table 2): 0.32 kcal mol^−1 HA^−1; IC50 (full-length CHK2 [5]; [6]): 21.3 ± 2.1 µM
COc1ccc(CNC(=O)c2ccc3nccnc3c2)cc1 [Compound 22]	–	–	–	–	–	IC50 (CHK1): > 200 µM; Ligand Efficiency (full-length CHK2 [5]; Table 2): 0.34 kcal mol^−1 HA^−1; IC50 (full-length CHK2 [5]; [6]): 3.6 ± 1.2 µM
CCOC(=O)N1CCN(C(=O)Nc2ccc3nccnc3c2)CC1 [Compound 23]	–	–	–	–	–	Ligand Efficiency (full-length CHK2 [5]; Table 2): 0.28 kcal mol^−1 HA^−1; IC50 (full-length CHK2 [5]; [6]): 14.2 ± 8.6 µM
Nc1ncc(-c2ccsc2)cc1-c1ccc(C(=O)O)cc1 [Compound 27, 4-(2-amino-5-(thiophen-3-yl)pyridin-3-yl)benzoic acid, reference compound]	–	–	–	–	–	inhibition at 10 µM (full-length CHK2 [4]; concentration of 10 µM, read-out: AlphaScreen™ percentage inhibition, positive control): 62.7%
C/C(=N\NC(=N)N)c1ccc(NC(=O)c2cc3cccc([N+](=O)[O-])c3[nH]2)cc1 [PV1019, 7-nitro-1H-indole-2-carboxylic acid {4-[1-(guanidinohydrazone)-ethyl]-phenyl}-amide]	–	–	–	–	–	Antiproliferative effect (cancer cell lines): antiproliferative effect; Potentiation of the cytotoxicity of topotecan and campothecan ([1]; ovarian cancer cell lines): potentiation of the cytotoxicity
CC(CO)NC(=N)c1c(O)nsc1Nc1ccc(Nc2ccc(Br)cc2)cc1 (centres unmarked) [VRX0466617]	–	–	–	–	–	Potentiation in combination with genotoxic agents [1]: no such effects have been observed
